Measured values: patent publication US8158810B2 (Gilead Sciences, Inc., priority 2006, dated 2012)

Biological target: T1, hMAO-A (Homo sapiens, UniProt P21397)
T1 construct: purchased Sigma M7316
T1 sequence (P21397 1-527): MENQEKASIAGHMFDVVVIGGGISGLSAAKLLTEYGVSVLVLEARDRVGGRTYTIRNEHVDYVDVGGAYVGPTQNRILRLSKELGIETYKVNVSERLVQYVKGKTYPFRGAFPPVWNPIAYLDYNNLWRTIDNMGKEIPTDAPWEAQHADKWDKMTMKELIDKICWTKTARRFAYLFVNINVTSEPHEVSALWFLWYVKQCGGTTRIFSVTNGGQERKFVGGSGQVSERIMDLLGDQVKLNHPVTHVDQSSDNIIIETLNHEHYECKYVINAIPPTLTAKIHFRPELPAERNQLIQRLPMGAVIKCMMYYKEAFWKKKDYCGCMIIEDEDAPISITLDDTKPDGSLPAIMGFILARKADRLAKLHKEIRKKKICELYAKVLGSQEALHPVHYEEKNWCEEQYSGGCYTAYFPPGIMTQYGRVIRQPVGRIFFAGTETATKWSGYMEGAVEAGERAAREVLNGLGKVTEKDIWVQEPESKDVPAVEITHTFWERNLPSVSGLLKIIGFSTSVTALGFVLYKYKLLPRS
Assay: MAO-A inhibition assay
Assay type: biochemical
Conditions: No = no inhibition; for hMAO-A inhibition up to 10 μM: printed in the IC50 hMAO-A column
Description: MAO-A (Sigma M7316) and MAO-B (Sigma M7441) inhibition assays were conducted in 96-well micro-plates according to the method described by Zhou et al. [Analytical Biochemistry 253, 169-174, 1997]. […] Reactions were initiated by the addition of a pre-mixed solution of tyramine, horseradish peroxidase and Amplex Red, and were allowed to proceed at 37° C. for 30 min. Enzyme activities were determined by measuring absorbance at 570 nm (SpectralMax Plate reader), absorbance of oxidized Amplex Red generated by this horseradish peroxidase-coupled reaction. Nonspecifically formed products were determined in the presence of 2 and 10 µM clorgyline and deprenyl for MAO-A and MAO-B, respectively. IC50 values were determined by fitting concentration-inhibition data to sigmoidal dose-response curves with two-floating parameters: IC50 and Hill coefficient.

hMAO-A inhibition up to 30 μM (up to 30 μM) | hMAO-A inhibition up to 10 μM | SMILES
 | No | N#Cc1ccc(-c2coc3cc(OCc4nnc(-c5cc(F)cc(C(F)(F)F)c5)o4)ccc3c2=O)cc1 [PT-68, 4-[7-({5-[5-fluoro-3-(trifluoromethyl)phenyl](1,3,4-oxadiazol-2-yl)}methoxy)-4-oxochromen-3-yl]benzenecarbonitrile]
 | No | N#Cc1ccc(-c2coc3cc(OCc4cc(-c5cccc(C(F)(F)F)c5)no4)ccc3c2=O)cc1 [PT-69, 4-[4-oxo-7-({3-[3-(trifluoromethyl)phenyl]isoxazol-5-yl}methoxy)chromen-3-yl]benzenecarbonitrile]
 | No | CS(=O)(=O)Nc1ccc(-c2coc3cc(OCc4noc(-c5cc(F)cc(C(F)(F)F)c5)n4)ccc3c2=O)cc1 [PT-70, 7-({5-[3-fluoro-5-(trifluoromethyl)phenyl](1,2,4-oxadiazol-3-yl)}methoxy)-3-{4-[(methylsulfonyl)amino]phenyl}chromen-4-one]
 | No | CS(=O)(=O)c1ccc(-c2coc3cc(OCc4noc(-c5cc(F)cc(C(F)(F)F)c5)n4)ccc3c2=O)cc1 [PT-71, 7-({5-[3-fluoro-5-(trifluoromethyl)phenyl](1,2,4-oxadiazol-3-yl)}methoxy)-3-[4-(methylsulfonyl)phenyl]chromen-4-one]
 | No | CC(=O)c1cccc(-c2coc3cc(OCc4noc(-c5cc(F)cc(C(F)(F)F)c5)n4)ccc3c2=O)c1 [PT-73, 3-(3-acetylphenyl)-7-({5-[3-fluoro-5-(trifluoromethyl)phenyl](1,2,4-oxadiazol-3-yl)}methoxy)chromen-4-one]
 | No | O=c1c(-c2ccc(O)cc2)coc2cc(OCc3nnc(-c4cc(F)cc(C(F)(F)F)c4)o3)ccc12 [PT-74, 7-({5-[3-fluoro-5-(trifluoromethyl)phenyl](1,3,4-oxadiazol-2-yl)}methoxy)-3-(4-hydroxyphenyl)chromen-4-one]
 | No | O=c1c(-c2ccc(O)cc2)coc2cc(OCc3nnc(-c4ccc(F)cc4)o3)ccc12 [PT-81, 7-{[5-(4-fluorophenyl)(1,3,4-oxadiazol-2-yl)]methoxy}-3-(4-hydroxyphenyl)chromen-4-one]
 | No | O=c1c(-c2ccc(O)cc2)coc2cc(OCc3ccncc3)ccc12 [PT-82, 3-(4-hydxoxyphenyl)-7-(4-pyridylmethoxy)chromen-4-one]
 | No | O=C(COc1ccc2c(=O)c(-c3ccc(O)cc3)coc2c1)Nc1ccccc1C(F)(F)F [PT-84, 2-[3-(4-hydroxyphenyl)-4-oxochromen-7-yloxy]-N-[2-(trifluoromethyl)phenyl]-acetamide]
 | No | O=c1c(-c2ccc(O)cc2)coc2cc(OCCc3ccccc3)ccc12 [PT-87, 3-(4-hydroxyphenyl)-7-(2-phenylethoxy)chromen-4-one]
 | 34% | O=c1c(-c2ccc(O)cc2)coc2cc(OCCOc3ccc(Cl)cc3)ccc12 [PT-89, 7-[2-(4-chlorophenoxy)ethoxy]-3-(4-hydroxyphenyl)chromen-4-one]
 | No | C[C@@H](NC(=O)COc1ccc2c(=O)c(-c3ccc(O)cc3)coc2c1)c1ccc(F)cc1 [PT-90, N-[(1R)-1-(4-fluorophenyl)ethyl]-2-[3-(4-hydroxyphenyl)-4-oxochromen-7-yloxy]acetamide]
 | No | O=c1c(-c2ccc(O)cc2)coc2cc(OCc3ccccn3)ccc12 [PT-91, 3-(4-hydroxyphenyl)-7-(2-pyridylmethoxy)chromen-4-one]
 | No | O=c1c(-c2ccc(O)cc2)coc2cc(OCCNCc3cccc(C(F)(F)F)c3)ccc12 [PT-99, 3-(4-hydroxyphenyl)-7-[2-({[3-(trifluoromethyl)phenyl]methyl}amino)ethoxy]chromen-4-one]
 | No | COC(=O)c1coc(COc2ccc3c(=O)c(-c4ccc(O)cc4)coc3c2)n1 [PT-101, methyl 2-{[3-(4-hydroxyphenyl)-4-oxochromen-7-yloxy]methyl}-1,3-oxazole-4-carboxylate]
 | No | O=C(O)c1coc(COc2ccc3c(=O)c(-c4ccc(O)cc4)coc3c2)n1 [PT-102, 2-{[3-(4-hydroxyphenyl)-4-oxochromen-7-yloxy]methyl}-1,3-oxazole-4-carboxylic acid]

The next lines start with the compound.

SMILES | hMAO-A inhibition up to 30 μM (up to 30 μM) | hMAO-A inhibition up to 10 μM
COC(=O)c1cccc(COc2ccc3c(=O)c(-c4ccc(O)cc4)coc3c2)c1 [PT-33, methyl 3-{[3-(4-hydroxyphenyl)-4-oxochromen-7-yloxy]methyl}benzoate] | No | 
O=c1c(-c2ccc(O)cc2)coc2cc(OCc3cc(-c4cccc(C(F)(F)F)c4)on3)ccc12 [PT-45, 3-(4-hydroxyphenyl)-7-({5-[3-(trifluoromethyl)phenyl]isoxazol-3-yl}methoxy)chromen-4-one] |  | No
COC(=O)c1cnc(COc2ccc3c(=O)c(-c4ccc(O)cc4)coc3c2)o1 [PT-47, methyl 2-{[3-(4-hydroxyphenyl)-4-oxochromen-7-yloxy]methyl}-1,3-oxazole-5-carboxylate] |  | No
O=C(O)c1cnc(COc2ccc3c(=O)c(-c4ccc(O)cc4)coc3c2)o1 [PT-49, 2-{[3-(4-hydroxyphenyl)-4-oxochromen-7-yloxy]methyl}-1,3-oxazole-5-carboxylic acid] |  | No
O=c1c(-c2ccc(O)cc2)coc2cc(OC[C@H](O)CNCc3cccc(C(F)(F)F)c3)ccc12 [PT-53, 7-[(2R)-2-hydroxy-3-({[3-(trifluoromethyl)phenyl]methyl}amino)propoxy]-3-(4-hydroxyphenyl)chromen-4-one] |  | No
O=c1c(-c2ccc(O)cc2)coc2cc(OCNCc3cccc(C(F)(F)F)c3)ccc12 [PT-54, 3-(4-hydroxyphenyl)-7-[({[3-(trifluoromethyl)phenyl]methyl}amino)methoxy]chromen-4-one] |  | No
O=c1c(-c2ccc(O)cc2)coc2cc(OC[C@H](O)CNCc3cc(F)cc(F)c3)ccc12 [PT-55, 7-((2R)-3-{[(3,5-difluorophenyl)methyl]amino}-2-hydroxypropoxy)-3-(4-hydroxyphenyl)chromen-4-one] |  | No
C[C@@H](NCC(=O)COc1ccc2c(=O)c(-c3ccc(O)cc3)coc2c1)c1ccc(F)cc1 [PT-56, 7-(3-{[(1R)-1-(4-fluorophenyl)ethyl]amino}-2-oxopropoxy)-3-(4-hydroxyphenyl)chromen-4-one] |  | 36%
O=c1c(-c2ccc(O)cc2)coc2cc(OCCCc3ccccc3)ccc12 [PT-57, 3-(4-hydroxyphenyl)-7-(3-phenylpropoxy)chromen-4-one] |  | No
O=c1c(-c2ccc(O)cc2)coc2cc(OCc3nnc(-c4cccc(F)c4)o3)ccc12 [PT-58, 7-{[5-(3-fluorophenyl)(1,3,4-oxadiazol-2-yl)]methoxy}-3-(4-hydroxyphenyl)chromen-4-one] |  | No
O=c1c(-c2ccc(O)cc2)coc2cc(OCc3nnc(-c4cccc(C(F)(F)F)c4)o3)ccc12 [PT-60, 3-(4-hydroxyphenyl)-7-({5-[3-(trifluoromethyl)phenyl](1,3,4-oxadiazol-2-yl)}methoxy)chromen-4-one] |  | No
O=c1c(-c2ccc(O)cc2)coc2cc(OCc3cnc(-c4ccccc4)o3)ccc12 [PT-61, 3-(4-hydroxyphenyl)-7-[(2-phenyl(1,3-oxazol-5-yl))methoxy]chromen-4-one] |  | No
O=c1c(-c2ccc(O)cc2)coc2cc(OCc3nnc(-c4ccccc4Cl)s3)ccc12 [PT-64, 7-{[5-(2-chlorophenyl)(1,3,4-thiadiazol-2-yl)]methoxy}-3-(4-hydroxyphenyl)chromen-4-one] |  | No
Cc1nc(-c2ccc(C(F)(F)F)cc2)sc1COc1ccc2c(=O)c(-c3ccc(C#N)cc3)coc2c1 [PT-65, 4-[7-({4-methyl-2-[4-(trifluoromethyl)phenyl](1,3-thiazol-5-yl)}methoxy)-4-oxochromen-3-yl]benzenecarbonitrile] |  | No
Cc1nc(-c2ccc(C(F)(F)F)cc2)sc1COc1ccc2c(=O)c(-c3ccc(NS(C)(=O)=O)cc3)coc2c1 [PT-66, 3-{4-[(methylsulfonyl)amino]phenyl}-7-({4-methyl-2-[4-(trifluoromethyl)phenyl](1,3-thiazol-5-yl)}methoxy)chromen-4-one] |  | No
COc1ccc(-c2coc3cc(OCc4sc(-c5ccc(C(F)(F)F)cc5)nc4C)ccc3c2=O)cn1 [PT-67, 3-(6-methoxy(3-pyridyl))-7-({4-methyl-2-[4-(trifluoromethyl)phenyl](1,3-thiazol-5-yl)}methoxy)chromen-4-one] |  | No
